Like-named read-outs stand apart in the source and are kept apart here. Blank lines part the entries; values can stand above or below the compound they belong to.
Columns and labels:
[1] = tested on: mammalian cells; test: Antiproliferative activity, summary grouping on the basis of MTT assays; assay type: cell-based; conditions: in words
Method: Adherent cells were seeded at 67×10^3 cells/mL in a 96 well plate (Falcon, Mississauga, Ontario) the day prior to exposure to compound. Suspension cells were seeded at 27×10^4 cells/mL in a 96 well plate the day of exposure to compound. Mononucleated, T-cell depleted normal bone marrow cells were seeded at 67×10^4 cells/mL in a 96 well plate the day of exposure to compound. Compounds and solvent control were added to cells and assayed in triplicate or sextuplet. Following 48 h of incubation at 37° C. with 5% CO2, 40 μL of a 5 mg/mL solution of 3-[4,5-dimethylthiazol-2-yl]-2,5-diphenyltetrazolium bromide (MTT) substrate (Sigma) in Dulbecco's phosphate-buffered saline (D-PBS) was added. After 4 h of incubation at 37° C. with 5% CO2, the resulting violet formazan precipitate was solubilized by the addition of 80 μL of a 0.01 M HCI, 10% sodium dodecyl sulfate (SDS; Sigma) solution overnight at 37° C. with 5% CO2. The plates were then analyzed using the BioRad Benchmark Microplate Reader (BioRad Laboratories, Hercules, Calif.) at 570 nm to determine the optical density of the samples. MTT data was analyzed using Prism 3.0 (GraphPad Software, Inc., San Diego, Calif.) by the Chou-Talalay method. MTT graphs shown are a representative experiment.
Initially, the efficacy of ten synthetic OSCs was explored for their antiproliferative activity against mammalian cells. […]

[2] = tested on: W1 leukemic cell line; test: MTT assay; assay type: cell-based, human; conditions: 48 h, read-out: MTT50
[3] = tested on: NB-4 leukemic cell line; test: MTT assay; assay type: cell-based, human; conditions: 48 h, read-out: MTT50
[4] = tested on: AML-2 leukemic cell line; test: MTT assay; assay type: cell-based, human; conditions: 48 h, read-out: MTT50
[5] = tested on: NB-4 leukemic cell line; test: Fixed propidium iodide staining, flow cytometry; assay type: cell-based, human; conditions: 48 h
[6] = tested on: G2 leukemic cell line; test: MTT assay; assay type: cell-based, human; conditions: Homo sapiens, 48 h, read-out: MTT50

IC50 [2]: 8.7 µM
IC50 ([3]; NB-4): 11.7 µM
IC50 [4]: 13.2 µM
Compound: CSSCS(=O)(=O)c1ccc(C)cc1 [Compound C, α-p-toluenesulfonyl dimethyl disulphide]

IC50 ([3]; Homo sapiens, NB-4): 60.8 µM
Compound: CSSCC(=O)c1ccccc1 [Compound P, phenacyl methyl disulphide]
% pre-G1 (Fixed PI) ([5]; NB-4, dose 50 uM): 18%
% pre-G1 (Fixed PI) ([5]; NB-4, dose 150 uM): 75%

IC50 ([3]; Homo sapiens, NB-4): 25.4 µM
IC50 [6]: 3.6 µM
IC50 ([4]; Homo sapiens): 15.6 µM
Compound: CS(=O)(=O)CSSc1ccccc1 [E, 5-phenyl-2,4,5-trithiapentane 2,2-dioxide]

IC50 ([2]; Homo sapiens): 4.8 µM
IC50 ([3]; Homo sapiens, NB-4): 21.2 µM
IC50 [6]: 11.3 µM
Compound: CSSc1ccc([N+](=O)[O-])cc1 [M, methyl p-nitrophenyl disulphide]
% pre-G1 (Fixed PI) ([5]; cell line printed NBA, dose 20 uM): 16%
% pre-G1 (Fixed PI) ([5]; cell line printed NBA, dose 40 uM): 60%

More lines, now with the values behind:

Compound: CS(C)(=O)=O [Compound A, dimethyl sulfone]
Antiproliferative activity (grouping in Summary of Results and Notes to the data sets) [1]: No anti-proliferative properties

Compound: CSCSSC [Compound N, 2,3,5-trithiahexane]
IC50 ([3]; Homo sapiens): 60.8 µM

Compound: CCC(=O)OCSSc1ccccc1 [Compound Q, 1-phenyl-1,2-dithiapropyl propionate]
IC50 ([2]; Homo sapiens): 13 µM
IC50 [6]: 14.7 µM

Compound: CSSCCS(C)(=O)=O [F, 2,3,6-trithiaheptane 6,6,-dioxide]
Antiproliferative activity (grouping in Summary of Results and Notes to the data sets) [1]: Anti-proliferative Activity
IC50 [4]: 37.6 µM
